PubChem BioAssay (NCI)
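How tested: cells in 96-well plates exposed to compound for 48 hours at five concentrations. Definition used: TGI = concentration required for complete inhibition of growth.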 Activity calls are given as the source filed them. No stated cut-off is given here; in the data, active means GI50 below about 0.43 µM; inactive means the rest.

How the values were obtained:
Experiment in all cases: NCI-60 cell line screen, 48 h
786-0 renal = test system: 786-0 renal
A549 NSCLC = test system: A549 NSCLC
ACHN renal = test system: ACHN renal
CCRF-CEM leukemia = test system: CCRF-CEM leukemia
COLO 205 colon = test system: COLO 205 colon
DLD-1 colon = test system: DLD-1 colon
DMS 114 small cell lung = test system: DMS 114 small cell lung
DMS 273 small cell lung = test system: DMS 273 small cell lung
HCC-2998 colon = test system: HCC-2998 colon
HCT-116 colon = test system: HCT-116 colon
HL-60(TB) leukemia = test system: HL-60(TB) leukemia
HOP-62 NSCLC = test system: HOP-62 NSCLC
HOP-92 NSCLC = test system: HOP-92 NSCLC
IGROV1 ovarian = test system: IGROV1 ovarian
K-562 leukemia = test system: K-562 leukemia
KM12 colon = test system: KM12 colon
KM20L2 colon = test system: KM20L2 colon
LOX IMVI melanoma = test system: LOX IMVI melanoma
LXFL 529 NSCLC = test system: LXFL 529 NSCLC
M14 melanoma = test system: M14 melanoma
M19-MEL melanoma = test system: M19-MEL melanoma
MALME-3M melanoma = test system: MALME-3M melanoma
MOLT-4 leukemia = test system: MOLT-4 leukemia
NCI-H226 lung = test system: NCI-H226 lung
NCI-H23 lung = test system: NCI-H23 lung
NCI-H460 lung = test system: NCI-H460 lung
NCI-H522 lung = test system: NCI-H522 lung
OVCAR-3 ovarian = test system: OVCAR-3 ovarian
OVCAR-4 ovarian = test system: OVCAR-4 ovarian
OVCAR-5 ovarian = test system: OVCAR-5 ovarian
OVCAR-8 ovarian = test system: OVCAR-8 ovarian
RPMI-8226 leukemia = test system: RPMI-8226 leukemia
RXF 393 renal = test system: RXF 393 renal
RXF-631 renal = test system: RXF-631 renal
SF-268 CNS = test system: SF-268 CNS
SF-295 CNS = test system: SF-295 CNS
SF-539 CNS = test system: SF-539 CNS
SK-MEL-2 melanoma = test system: SK-MEL-2 melanoma
SK-MEL-28 melanoma = test system: SK-MEL-28 melanoma
SK-MEL-5 melanoma = test system: SK-MEL-5 melanoma
SK-OV-3 ovarian = test system: SK-OV-3 ovarian
SN12C renal = test system: SN12C renal
SNB-19 CNS = test system: SNB-19 CNS
SNB-75 CNS = test system: SNB-75 CNS
SNB-78 CNS = test system: SNB-78 CNS
SW-620 colon = test system: SW-620 colon
TK-10 renal = test system: TK-10 renal
U251 CNS = test system: U251 CNS
UACC-257 melanoma = test system: UACC-257 melanoma
UACC-62 melanoma = test system: UACC-62 melanoma
UO-31 renal = test system: UO-31 renal
XF 498 CNS = test system: XF 498 CNS
A498 renal = test system: A498 renal
CAKI-1 renal = test system: CAKI-1 renal
HCT-15 colon = test system: HCT-15 colon
HOP-18 NSCLC = test system: HOP-18 NSCLC
HT29 colon = test system: HT29 colon
SR leukemia = test system: SR leukemia
EKVX NSCLC = test system: EKVX NSCLC

For `C=CCCCCC1CCC2CCC(CCCC)N12` (centres undefined), the outcome (786-0 renal) was “inactive”, the outcome (A549 NSCLC) was “inactive” and the outcome (ACHN renal) was “inactive”. For the same molecule, the outcome (CCRF-CEM leukemia) was “inactive”, the outcome (COLO 205 colon) was “inactive” and the outcome (DLD-1 colon) was “inactive”. The outcome (DMS 114 small cell lung) was “inactive”, the outcome (DMS 273 small cell lung) was “inactive” and the outcome (HCC-2998 colon) was “inactive”. The outcome (HCT-116 colon) was “inactive”, the outcome (HL-60(TB) leukemia) was “inactive” and the outcome (HOP-62 NSCLC) was “inactive”. For the same molecule, the outcome (HOP-92 NSCLC) was “inactive”, the outcome (IGROV1 ovarian) was “inactive” and the outcome (K-562 leukemia) was “inactive”. The outcome (KM12 colon) was “inactive”, the outcome (KM20L2 colon) was “inactive” and the outcome (LOX IMVI melanoma) was “inactive”. The outcome (LXFL 529 NSCLC) was “inactive”, the outcome (M14 melanoma) was “inactive” and the outcome (M19-MEL melanoma) was “inactive”. For the same molecule, the outcome (MALME-3M melanoma) was “inactive”, the outcome (MOLT-4 leukemia) was “inactive” and the outcome (NCI-H226 lung) was “inactive”. The outcome (NCI-H23 lung) was “inactive”, the outcome (NCI-H460 lung) was “inactive” and the outcome (NCI-H522 lung) was “inactive”. For the same molecule, the outcome (OVCAR-3 ovarian) was “inactive”, the outcome (OVCAR-4 ovarian) was “inactive” and the outcome (OVCAR-5 ovarian) was “inactive”. The outcome (OVCAR-8 ovarian) was “inactive”, the outcome (RPMI-8226 leukemia) was “inactive” and the outcome (RXF 393 renal) was “inactive”. For the same molecule, the outcome (RXF-631 renal) was “inactive”, the outcome (SF-268 CNS) was “inactive” and the outcome (SF-295 CNS) was “inactive”. For the same molecule, the outcome (SF-539 CNS) was “inactive”, the outcome (SK-MEL-2 melanoma) was “inactive” and the outcome (SK-MEL-28 melanoma) was “inactive”. The outcome (SK-MEL-5 melanoma) was “inactive”, the outcome (SK-OV-3 ovarian) was “inactive” and the outcome (SN12C renal) was “inactive”. The outcome (SNB-19 CNS) was “inactive”, the outcome (SNB-75 CNS) was “inactive” and the outcome (SNB-78 CNS) was “inactive”. The outcome (SW-620 colon) was “inactive”, the outcome (TK-10 renal) was “inactive” and the outcome (U251 CNS) was “inactive”. The outcome (UACC-257 melanoma) was “inactive”, the outcome (UACC-62 melanoma) was “inactive” and the outcome (UO-31 renal) was “inactive”. For the same molecule, the outcome (XF 498 CNS) was “inactive”.
Work on `O=C(NC1C(O)C(O)C(CO)OC1n1cc(F)c(=O)[nH]c1=O)OCc1ccccc1` (centres undefined) yielded a TGI (A498 renal) of over 100 µM, a TGI (A549 NSCLC) of over 100 µM and a TGI (ACHN renal) of over 100 µM. For the same molecule, the TGI (CAKI-1 renal) was over 100 µM, the TGI (CCRF-CEM leukemia) was over 100 µM and the TGI (COLO 205 colon) was over 100 µM. It also gave a TGI (DLD-1 colon) of over 100 µM, a TGI (DMS 114 small cell lung) of over 100 µM and a TGI (DMS 273 small cell lung) of over 100 µM. For the same molecule, the TGI (HCC-2998 colon) was over 100 µM, the TGI (HCT-116 colon) was over 100 µM and the TGI (HCT-15 colon) was over 100 µM. The TGI (HL-60(TB) leukemia) was over 100 µM, the TGI (HOP-18 NSCLC) was over 100 µM and the TGI (HOP-62 NSCLC) was over 100 µM. The TGI (HOP-92 NSCLC) was over 100 µM, the TGI (HT29 colon) was over 100 µM and the TGI (KM12 colon) was over 100 µM. It also gave a TGI (KM20L2 colon) of over 100 µM, a TGI (LOX IMVI melanoma) of over 100 µM and a TGI (LXFL 529 NSCLC) of over 100 µM. The TGI (M14 melanoma) was over 100 µM, the TGI (MALME-3M melanoma) was over 100 µM and the TGI (NCI-H226 lung) was over 100 µM. The TGI (NCI-H23 lung) was over 100 µM, the TGI (NCI-H460 lung) was over 100 µM and the TGI (NCI-H522 lung) was over 100 µM. For the same molecule, the TGI (OVCAR-4 ovarian) was over 100 µM, the TGI (OVCAR-5 ovarian) was over 100 µM and the TGI (RPMI-8226 leukemia) was over 100 µM. It also gave a TGI (RXF 393 renal) of over 100 µM, a TGI (RXF-631 renal) of over 100 µM and a TGI (SF-268 CNS) of over 100 µM. For the same molecule, the TGI (SF-295 CNS) was over 100 µM, the TGI (SK-MEL-2 melanoma) was over 100 µM and the TGI (SK-MEL-28 melanoma) was over 100 µM. For the same molecule, the TGI (SK-MEL-5 melanoma) was over 100 µM, the TGI (SK-OV-3 ovarian) was over 100 µM and the TGI (SN12C renal) was over 100 µM. It also gave a TGI (SNB-19 CNS) of over 100 µM, a TGI (SNB-75 CNS) of over 100 µM and a TGI (SNB-78 CNS) of over 100 µM. The TGI (SR leukemia) was over 100 µM, the TGI (SW-620 colon) was over 100 µM and the TGI (TK-10 renal) was over 100 µM. It also gave a TGI (U251 CNS) of over 100 µM and a TGI (UACC-257 melanoma) of over 100 µM.
Molecule `O=c1[nH]ccc2c1ccn2C1CC(O)C(CO)O1` (centres undefined) has a TGI (786-0 renal) of over 100 µM, a TGI (A498 renal) of over 100 µM and a TGI (A549 NSCLC) of over 100 µM. It also gave a TGI (ACHN renal) of over 100 µM, a TGI (CAKI-1 renal) of over 100 µM and a TGI (CCRF-CEM leukemia) of over 100 µM. The TGI (COLO 205 colon) was over 100 µM, the TGI (DLD-1 colon) was over 100 µM and the TGI (DMS 114 small cell lung) was over 100 µM. It also gave a TGI (DMS 273 small cell lung) of over 100 µM, a TGI (EKVX NSCLC) of over 100 µM and a TGI (HCC-2998 colon) of over 100 µM. The TGI (HCT-116 colon) was over 100 µM, the TGI (HCT-15 colon) was over 100 µM and the TGI (HL-60(TB) leukemia) was over 100 µM. The TGI (HOP-18 NSCLC) was over 100 µM, the TGI (HOP-62 NSCLC) was over 100 µM and the TGI (HOP-92 NSCLC) was over 100 µM. For the same molecule, the TGI (HT29 colon) was over 100 µM, the TGI (IGROV1 ovarian) was over 100 µM and the TGI (K-562 leukemia) was over 100 µM. It also gave a TGI (KM12 colon) of over 100 µM, a TGI (LOX IMVI melanoma) of over 100 µM and a TGI (LXFL 529 NSCLC) of over 100 µM. For the same molecule, the TGI (M14 melanoma) was over 100 µM, the TGI (M19-MEL melanoma) was over 100 µM and the TGI (MALME-3M melanoma) was over 100 µM. The TGI (MOLT-4 leukemia) was over 100 µM, the TGI (NCI-H226 lung) was over 100 µM and the TGI (NCI-H23 lung) was over 100 µM. It also gave a TGI (NCI-H460 lung) of over 100 µM, a TGI (NCI-H522 lung) of over 100 µM and a TGI (OVCAR-3 ovarian) of over 100 µM. It also gave a TGI (OVCAR-4 ovarian) of over 100 µM, a TGI (OVCAR-5 ovarian) of over 100 µM and a TGI (OVCAR-8 ovarian) of over 100 µM. For the same molecule, the TGI (RPMI-8226 leukemia) was over 100 µM, the TGI (RXF-631 renal) was over 100 µM and the TGI (SF-295 CNS) was over 100 µM. The TGI (SF-539 CNS) was over 100 µM, the TGI (SK-MEL-2 melanoma) was over 100 µM and the TGI (SK-MEL-28 melanoma) was over 100 µM. It also gave a TGI (SK-MEL-5 melanoma) of over 100 µM, a TGI (SK-OV-3 ovarian) of over 100 µM and a TGI (SN12C renal) of over 100 µM. The TGI (SNB-19 CNS) was over 100 µM, the TGI (SNB-75 CNS) was over 100 µM and the TGI (SNB-78 CNS) was over 100 µM. It also gave a TGI (SR leukemia) of over 100 µM, a TGI (SW-620 colon) of over 100 µM and a TGI (TK-10 renal) of over 100 µM. The TGI (U251 CNS) was over 100 µM, the TGI (UACC-257 melanoma) was over 100 µM and the TGI (UACC-62 melanoma) was over 100 µM. The TGI (UO-31 renal) was over 100 µM.
